For this experiment, the target named is T1, Recombinant human HSD17B13 enzyme (Homo sapiens, UniProt Q7Z5P4).
T1 sequence (Q7Z5P4 20-300): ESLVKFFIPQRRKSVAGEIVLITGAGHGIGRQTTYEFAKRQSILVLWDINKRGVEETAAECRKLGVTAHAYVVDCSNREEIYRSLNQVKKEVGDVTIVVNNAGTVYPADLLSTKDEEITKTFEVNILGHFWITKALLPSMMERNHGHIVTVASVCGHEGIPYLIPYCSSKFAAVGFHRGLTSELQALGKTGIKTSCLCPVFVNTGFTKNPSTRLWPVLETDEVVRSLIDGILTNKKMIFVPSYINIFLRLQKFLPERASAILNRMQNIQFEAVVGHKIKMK
The experiment can be described thus: HSD17b13 NAD(P)H-Glo biochemical assay. The note with it: for IC50: 50 uM estradiol, 1 mM NAD+, NAD(P)H-Glo luminescence, read-out: HSD17β13 IC50. A digest of the protocol:
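Luminescent NAD(P)H-Glo read-out, taken after 1 hour at RT, measured cofactor reduction. Substrate and cofactor were estradiol at 50 uM and NAD+ at 1 mM final, reacted with the recombinant human enzyme for 3 hours at 37° C in 20 mM Tris pH7.4, 0.002% Tween-20, 0.02% BSA. Compound was pre-incubated with enzyme for 20 minutes at RT.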

The structures appear in SMILES notation. Bounds are passed on as bounds.

This note sets out measurements from patent US20240083853A1, “HSD17B13 INHIBITORS AND USES THEREOF” (FL2022-001, Inc., priority 2020, published 2024).

Take `CS(=O)(=O)N1CCN(c2ccc(-n3ncc4cc(F)c(O)c(F)c43)cn2)CC1` [Compound 26.2, 5,7-Difluoro-1-(6-(4-(methylsulfonyl)piperazin-1-yl)pyridin-3-yl)-1H-indazol-6-ol]: the IC50 was in the range of 100 to 1000 nM. On to `Oc1c(F)cc2cnn(-c3ccc(-c4ccncc4)cc3)c2c1F` [Compound 14.4, 5,7-Difluoro-1-(4-(pyridin-4-yl)phenyl)-1H-indazol-6-ol], for which the concentration for half-maximal inhibition (IC50) is less than 100 nM. `Oc1c(F)cc2cnn(-c3ccc(N4CCC(O)CC4)cc3)c2c1F` [Compound 23.1, 5,7-Difluoro-1-(4-(4-hydroxypiperidin-1-yl)phenyl)-1H-indazol-6-ol]: the IC50 lay in the range of 100 to 1000 nM. For the compound `Oc1ccc(-c2ccc(-n3ncc4cc(F)c(O)cc43)cc2)cc1` [Compound 2.1, 5-Fluoro-1-(4′-hydroxy-[1,1′-biphenyl]-4-yl)-1H-indazol-6-ol], the IC50 was in the range of 100 to 1000 nM. Consider `Cc1cc(N2CCN(S(C)(=O)=O)CC2)ccc1-n1ncc2cc(F)c(O)c(F)c21` [Compound 20.2, 5,7-Difluoro-1-(2-methyl-4-(4-(methylsulfonyl)piperazin-1-yl)phenyl)-1H-indazol-6-ol], for which the IC50 was 100 to 1000 nM. `Cn1c(=O)n(-c2ccc(N3CCC(C)(C)CC3)cc2)c2c(F)c(O)c(F)cc21` [Compound 21.6, 3-(4-(4,4-Dimethylpiperidin-1-yl)phenyl)-4,6-difluoro-5-hydroxy-1-methyl-1H-benzo[d]imidazol-2(3H)-one]: the IC50 is less than 100 nM. Still for that read-out and setting: the same measure for `Oc1c(F)cc2cnn(-c3ccc(-c4ccc(Cl)cc4)nc3)c2c1F` [Compound 18.2, 1-(6-(4-Chlorophenyl)pyridin-3-yl)-5,7-difluoro-1H-indazol-6-ol]: less than 100 nM. Turning to `N#Cc1ccccc1-c1ccc(-n2ncc3cc(F)c(O)cc32)cc1` [Compound 13.16, 4′-(5-Fluoro-6-hydroxy-1H-indazol-1-yl)-[1,1′-biphenyl]-2-carbonitrile], the half-inhibitory concentration (IC50) fell in the range of 100 to 1000 nM. For `CS(=O)(=O)N1CCN(c2ccc(-n3ncc4cc(F)c(O)c(F)c43)c(F)c2)CC1` [Compound 20.8, 5,7-Difluoro-1-(2-fluoro-4-(4-(methylsulfonyl)piperazin-1-yl)phenyl)-1H-indazol-6-ol], the IC50 is less than 100 nM.

`Oc1cc2c(nnn2-c2ccc(N3CC4(CCOCC4)C3)cc2)c(Cl)c1F` [Compound 40, 1-(4-(7-Oxa-2-azaspiro[3.5]nonan-2-yl)phenyl)-4-chloro-5-fluoro-1H-benzo[d][1,2,3]triazol-6-ol]: the IC50 is less than 100 nM. On to `CS(=O)(=O)N1CCC2(CC1)CN(c1ccc(-n3ncc4cc(F)c(O)c(F)c43)cc1)C2` [Compound 20.22, 5,7-Difluoro-1-(4-(7-(methylsulfonyl)-2,7-diazaspiro[3.5]nonan-2-yl)phenyl)-1H-indazol-6-ol], for which the IC50 was 100 to 1000 nM.

As to `CS(=O)(=O)N1CCC(c2ccc(-n3cnc4cc(F)c(O)c(F)c43)cc2)CC1` [Compound 28, 5,7-Difluoro-1-(4-(1-(methylsulfonyl)piperidin-4-yl)phenyl)-1H-benzo[d]imidazol-6-ol], the IC50 was less than 100 nM.

Take `CC1(C)CCN(c2ccc(-n3ncc4cc(F)c(O)c(C#N)c43)cc2)CC1` [Compound 26.10, 1-(4-(4,4-Dimethylpiperidin-1-yl)phenyl)-5-fluoro-6-hydroxy-1H-indazole-7-carbonitrile]: the IC50 was in the range of 100 to 1000 nM.

`CC1(C)CCN(c2ccc(-n3ncc4cc(F)c(O)c(F)c43)cc2)CC1` [Compound 23, 1-(4-(4,4-Dimethylpiperidin-1-yl)phenyl)-5,7-difluoro-1H-indazol-6-ol]: the IC50 was less than 100 nM. Turning to `Oc1ccc(-c2ccc(-n3ncc4cc(Cl)c(O)cc43)cc2)cc1` [Compound 2.5, 5-Chloro-1-(4′-hydroxy-[1,1′-biphenyl]-4-yl)-1H-indazol-6-ol], the IC50 was in the range of 100 to 1000 nM. As to `Oc1c(F)cc2nnn(-c3ccc(N4CC5(CCOCC5)C4)nn3)c2c1F` [Compound 26.24, 1-(6-(7-Oxa-2-azaspiro[3.5]nonan-2-yl)pyridazin-3-yl)-5,7-difluoro-1H-benzo[d][1,2,3]triazol-6-ol], the IC50 lay within 1000 to 30000 nM. As for `CS(=O)(=O)N1CCN(c2ccc(-n3ncc4ccc(O)c(F)c43)cc2)CC1` [Compound 21.11, 7-Fluoro-1-(4-(4-(methylsulfonyl)piperazin-1-yl)phenyl)-1H-indazol-6-ol], the IC50 fell in the range of 100 to 1000 nM.

For the compound `CC1(CO)CCN(c2ccc(-n3ncc4cc(F)c(O)c(F)c43)cc2)CC1` [Compound 20.17, 5,7-Difluoro-1-(4-(4-(hydroxymethyl)-4-methylpiperidin-1-yl)phenyl)-1H-indazol-6-ol], the IC50 is 100 to 1000 nM.

As to `NC(=O)c1ccc(-c2ccc(-n3ncc4cc(F)c(O)cc43)cc2)cc1` [Compound 13.36, 4′-(5-Fluoro-6-hydroxy-1H-indazol-1-yl)-[1,1′-biphenyl]-4-carboxamide], the IC50 fell in the range of 100 to 1000 nM.

With `O=C(O)c1ccc(-c2ccc(-n3ncc4cc(F)c(O)cc43)cc2)cc1` [Compound 13.30, 4′-(5-Fluoro-6-hydroxy-1H-indazol-1-yl)-[1,1′-biphenyl]-4-carboxylic acid], the IC50 was in the range of 1000 to 30000 nM.

In the case of `CS(=O)(=O)N1CCN(c2ccc(-n3ncc4cc(F)c(O)nc43)cc2)CC1` [Compound 25.3, 5-Fluoro-1-(4-(4-(methylsulfonyl)piperazin-1-yl)phenyl)-1H-pyrazolo[3,4-b]pyridin-6-ol], under “3 h, at 10 uM compound, read-out: HSD17β13 % at 10 uM”, the inhibition at 10 µM is 35%.

As to `Oc1cc2c(cnn2-c2ccc(-c3ccc(O)c(Cl)c3)cc2)cc1F` [Compound 15, 1-(3′-Chloro-4′-hydroxy-[1,1′-biphenyl]-4-yl)-5-fluoro-1H-indazol-6-ol], the IC50 lay within 100 to 1000 nM.

With `Oc1c(F)cc2cnn(-c3ccc(-c4cn[nH]c4)cc3)c2c1F` [Compound 14.1, 1-(4-(1H-Pyrazol-4-yl)phenyl)-5,7-difluoro-1H-indazol-6-ol], the IC50 is 100 to 1000 nM. On to `CS(=O)(=O)N1CCN(c2ccc(-n3nnc4cc(F)c(O)c(F)c43)nn2)CC1` [Compound 26.25, 5,7-Difluoro-1-(6-(4-(methylsulfonyl)piperazin-1-yl)pyridazin-3-yl)-1H-benzo[d][1,2,3]triazol-6-ol], for which the IC50 lay within 1000 to 30000 nM. On to `C[C@H]1CN(c2ccc(-n3ncc4cc(F)c(O)c(F)c43)cc2)C[C@H](C)S1` (relative stereo) [Compound 32.5, 1-(4-(trans-2,6-Dimethylthiomorpholino)phenyl)-5,7-difluoro-1H-indazol-6-ol], for which the IC50 is less than 100 nM.

As to `Oc1cc2c(cnn2-c2ccc(-c3ccc(Cl)cc3)cc2)cc1F` [Compound 13.8, 1-(4′-Chloro-[1,1′-biphenyl]-4-yl)-5-fluoro-1H-indazol-6-ol], the IC50 fell in the range of 100 to 1000 nM. Consider `CC1(C)CCN(c2ccc(-n3ncc4cc(F)c(O)c(F)c43)cc2)C1` [Compound 23.11, 1-(4-(3,3-Dimethylpyrrolidin-1-yl)phenyl)-5,7-difluoro-1H-indazol-6-ol], for which the IC50 is less than 100 nM.

In the case of `Oc1cccc(-c2ccc(-n3nc(F)c4cc(F)c(O)cc43)cc2)c1` [Compound 5.3, 3,5-Difluoro-1-(3′-hydroxy-[1,1′-biphenyl]-4-yl)-1H-indazol-6-ol], the IC50 was in the range of 100 to 1000 nM.

Consider `CC1(C)CCN(c2ccc(-n3nnc4cc(F)c(O)cc43)cc2)CC1` [Compound 21.7, 1-(4-(4,4-Dimethylpiperidin-1-yl)phenyl)-5-fluoro-1H-benzo[d][1,2,3]triazol-6-ol], for which the IC50 is less than 100 nM.

In general, IC50 refers to the concentration needed to halve the response being measured.
